Reference: US10590128B2, “6,7,8,9-tetrahydro-5H-pyrido[2,3-d]azepine dopamine D3 ligands” (Pfizer Inc., priority 2016, dated 2020)

Key:
[1] = molecular target: human dopamine D2 receptor (hD2R) (Homo sapiens, UniProt P14416); test: Human D2 receptor binding assay ([^3H]-Spiperone); settings: CHO cells expressing hD2R, geometric mean of 2-5 determinations unless marked b (single determination)
[2] = molecular target: human dopamine D3 receptor (hD3R) (Homo sapiens, UniProt P35462); test: Human D3 receptor binding assay ([^3H]-7-OH-DPAT); settings: CHO cells expressing hD3R, geometric mean of 2-5 determinations unless marked b (single determination), read-out: hD3 in CHO cells Ki
Sequence of human dopamine D3 receptor (hD3R) (P35462 whole entry): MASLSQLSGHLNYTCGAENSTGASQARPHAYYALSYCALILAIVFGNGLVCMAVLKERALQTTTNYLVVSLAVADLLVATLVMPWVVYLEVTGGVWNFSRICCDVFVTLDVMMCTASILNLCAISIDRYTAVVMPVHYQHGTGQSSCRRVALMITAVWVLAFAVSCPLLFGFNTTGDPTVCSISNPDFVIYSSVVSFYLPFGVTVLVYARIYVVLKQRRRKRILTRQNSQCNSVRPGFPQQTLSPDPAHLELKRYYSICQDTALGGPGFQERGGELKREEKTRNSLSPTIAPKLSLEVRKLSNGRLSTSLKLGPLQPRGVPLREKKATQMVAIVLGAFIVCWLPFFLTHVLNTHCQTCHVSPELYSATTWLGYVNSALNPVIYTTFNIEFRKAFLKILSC

Sequence of human dopamine D2 receptor (hD2R) (P14416 whole entry): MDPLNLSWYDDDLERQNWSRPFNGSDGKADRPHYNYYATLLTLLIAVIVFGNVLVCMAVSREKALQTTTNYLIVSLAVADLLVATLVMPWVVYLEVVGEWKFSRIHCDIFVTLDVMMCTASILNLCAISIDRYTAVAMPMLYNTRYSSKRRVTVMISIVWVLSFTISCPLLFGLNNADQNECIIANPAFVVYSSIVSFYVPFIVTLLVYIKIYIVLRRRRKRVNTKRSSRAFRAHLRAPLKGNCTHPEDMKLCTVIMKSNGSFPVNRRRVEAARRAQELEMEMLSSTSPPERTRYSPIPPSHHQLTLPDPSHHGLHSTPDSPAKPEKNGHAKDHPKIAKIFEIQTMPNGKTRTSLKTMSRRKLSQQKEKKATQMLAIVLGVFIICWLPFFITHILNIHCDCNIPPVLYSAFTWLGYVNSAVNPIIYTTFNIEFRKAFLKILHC

SMILES | Ki [1] [nM] | Ki [2] [nM]
COc1nc2c(cc1NS(=O)(=O)c1ccc(C)cc1)CCN(CCCF)CC2 [Example 115, N-[7-(3-fluoropropyl)-2-methoxy-6,7,8,9-tetrahydro-5H-pyrido[2,3-d]azepin-3-yl]-4-methylbenzenesulfonamide] | 213 | 14.8
COc1nc2c(cc1NS(=O)(=O)c1cnc(OC3CCC3)nc1)CCN(C)CC2 [Example 116, 2-(cyclobutyloxy)-N-(2-methoxy-7-methyl-6,7,8,9-tetrahydro-5H-pyrido[2,3-d]azepin-3-yl)pyrimidine-5-sulfonamide] | 379 | 7.17
COc1nc2c(cc1NS(=O)(=O)c1cnc(OC(C)(C)C)nc1)CCN(C)CC2 [Example 117, 2-tert-butoxy-N-(2-methoxy-7-methyl-6,7,8,9-tetrahydro-5H-pyrido[2,3-d]azepin-3-yl)pyrimidine-5-sulfonamide] | 464 | 9.93
COc1nc2c(cc1NS(=O)(=O)c1cnc(C3CCCC3)nc1)CCN(C)CC2 [Example 123, 2-cyclopentyl-N-(2-methoxy-7-methyl-6,7,8,9-tetrahydro-5H-pyrido[2,3-d]azepin-3-yl)pyrimidine-5-sulfonamide] | 164 | 12.9
COc1nc2c(cc1NS(=O)(=O)c1cnc(C3CCCCC3)nc1)CCN(C)CC2 [Example 127, 2-cyclohexyl-N-(2-methoxy-7-methyl-6,7,8,9-tetrahydro-5H-pyrido[2,3-d]azepin-3-yl)pyrimidine-5-sulfonamide] | 457 | 32.2
COc1nc2c(cc1NS(=O)(=O)c1ccc([C@H]3CCCCO3)nc1)CCN(C)CC2 [Example 129, N-(2-methoxy-7-methyl-6,7,8,9-tetrahydro-5H-pyrido[2,3-d]azepin-3-yl)-6-[(2R)-tetrahydro-2H-pyran-2-yl]pyridine-3-sulfonamide] | 786 | 16.7
CCO[C@H]1C[C@@](F)(c2ccc(S(=O)(=O)Nc3cc4c(nc3OC)CCN(C)CC4)cc2)C1 [Example 132, 4-(trans-3-ethoxy-1-fluorocyclobutyl)-N-(2-methoxy-7-methyl-6,7,8,9-tetrahydro-5H-pyrido[2,3-d]azepin-3-yl)benzenesulfonamide] | 367 | 2.23
COc1nc2c(cc1NS(=O)(=O)c1ccc([C@]3(F)C[C@H](OCCF)C3)cc1)CCN(C)CC2 [Example 133, 4-[trans-1-fluoro-3-(2-fluoroethoxy)cyclobutyl]-N-(2-methoxy-7-methyl-6,7,8,9-tetrahydro-5H-pyrido[2,3-d]azepin-3-yl)benzenesulfonamide] | 428 | 2.47
CCO[C@H]1C[C@H](c2ccc(S(=O)(=O)Nc3cc4c(nc3OC)CCN(C)CC4)cn2)C1 [Example 134, 6-(trans-3-ethoxycyclobutyl)-N-(2-methoxy-7-methyl-6,7,8,9-tetrahydro-5H-pyrido[2,3-d]azepin-3-yl)pyridine-3-sulfonamide] | 1810 | 14.8
CCO[C@H]1C[C@@H](c2ccc(S(=O)(=O)Nc3cc4c(nc3OC)CCN(C)CC4)cn2)C1 [Example 135, 6-(cis-3-ethoxycyclobutyl)-N-(2-methoxy-7-methyl-6,7,8,9-tetrahydro-5H-pyrido[2,3-d]azepin-3-yl)pyridine-3-sulfonamide] | > 3140 | 23.6

These reach a lower Ki [1]. Values come first.

Ki [1] [nM] | Ki [2] [nM] | SMILES
146 | 3.15 | CCN1CCc2cc(NS(=O)(=O)c3ccc(C4CCCCC4)nc3)c(OC)nc2CC1 [Example 114, 6-cyclohexyl-N-(7-ethyl-2-methoxy-6,7,8,9-tetrahydro-5H-pyrido[2,3-d]azepin-3-yl)pyridine-3-sulfonamide]
5.41 | 0.57 | CCCc1ccc(S(=O)(=O)Nc2cc3c(nc2OC)CCN(C)CC3)cc1 [Example 118, N-(2-methoxy-7-methyl-6,7,8,9-tetrahydro-5H-pyrido[2,3-d]azepin-3-yl)-4-propylbenzenesulfonamide]
89.9 | 2.42 | CCN1CCc2cc(NS(=O)(=O)c3ccc([C@H]4C[C@@H](OCCF)C4)cc3)c(OC)nc2CC1 [Example 119, N-(7-ethyl-2-methoxy-6,7,8,9-tetrahydro-5H-pyrido[2,3-d]azepin-3-yl)-4-[cis-3-(2-fluoroethoxy)cyclobutyl]benzenesulfonamide]
54 | 1.28 | CCO[C@H]1C[C@@H](c2ccc(S(=O)(=O)Nc3cc4c(nc3OC)CCN(CC)CC4)cc2)C1 [Example 120, 4-(cis-3-ethoxycyclobutyl)-N-(7-ethyl-2-methoxy-6,7,8,9-tetrahydro-5H-pyrido[2,3-d]azepin-3-yl)benzenesulfonamide]
39.8 | 2.53 | CCOC1CC(c2ccc(S(=O)(=O)Nc3cc4c(nc3OC)CCN(CC)CC4)cc2)C1 (stereo not drawn) [Example 121, 4-(trans-3-ethoxycycyclobutyl)-N-(7-ethyl-2-methoxy-6,7,8,9-tetrahydro-5H-pyrido[2,3-d]azepin-3-yl)benzenesulfonamide]
128 | 4.58 | COc1nc2c(cc1NS(=O)(=O)c1ccc(OC3CCCC3)nc1)CCN(CCCF)CC2 [Example 122, 6-(cyclopentyloxy)-N-[7-(3-fluoropropyl)-2-methoxy-6,7,8,9-tetrahydro-5H-pyrido[2,3-d]azepin-3-yl]pyridine-3-sulfonamide]
3.89 | 0.79 | COc1nc2c(cc1NS(=O)(=O)c1cnc(OC3CCCC3)c(C)c1)CCN(C)CC2 [Example 124, 6-(cyclopentyloxy)-N-(2-methoxy-7-methyl-6,7,8,9-tetrahydro-5H-pyrido[2,3-d]azepin-3-yl)-5-methylpyridine-3-sulfonamide]
4.05 | 1.46 | CCN1CCc2cc(NS(=O)(=O)c3cnc(OC4CCCC4)c(C)c3)c(OC)nc2CC1 [Example 125, 6-(cyclopentyloxy)-N-(7-ethyl-2-methoxy-6,7,8,9-tetrahydro-5H-pyrido[2,3-d]azepin-3-yl)-5-methylpyridine-3-sulfonamide]
10.9 | 1.85 | COc1nc2c(cc1NS(=O)(=O)c1cnc(OC3CCC3)c(C)c1)CCN(C)CC2 [Example 126, 6-(cyclobutyloxy)-N-(2-methoxy-7-methyl-6,7,8,9-tetrahydro-5H-pyrido[2,3-d]azepin-3-yl)-5-methylpyridine-3-sulfonamide]
4.07 | 1.24 | COc1nc2c(cc1NS(=O)(=O)c1ccc(OC3CCCC3)nc1C)CCN(C)CC2 [Example 128, 6-(cyclopentyloxy)-N-(2-methoxy-7-methyl-6,7,8,9-tetrahydro-5H-pyrido[2,3-d]azepin-3-yl)-2-methylpyridine-3-sulfonamide]
25.2 | 1.69 | COc1nc2c(cc1NS(=O)(=O)c1cnc(OC3CCCC3)c(F)c1)CCN(C)CC2 [Example 130, 6-(cyclopentyloxy)-5-fluoro-N-(2-methoxy-7-methyl-6,7,8,9-tetrahydro-5H-pyrido[2,3-d]azepin-3-yl)pyridine-3-sulfonamide]
36.1 | 2.3 | COc1nc2c(cc1NS(=O)(=O)c1ccc(CC3CCCC3)nc1)CCN(C)CC2 [Example 131, 6-(cyclopentylmethyl)-N-(2-methoxy-7-methyl-6,7,8,9-tetrahydro-5H-pyrido[2,3-d]azepin-3-yl)pyridine-3-sulfonamide]
